The values below come from patent publication US5912331A, “Process for the preparation of 9-deoxo-9(Z)-hydroxyiminoerythromycin A” (Merck & Co., Inc., priority 1991, dated 1999).

≈ marks a conversion by molar mass, not a printed value. Read-outs that look alike come from different tables or passages of the source.

Series [1] deals with Enterococcus faecalis MB 5407. As to the kind of experiment: MIC, liquid turbidimetric microtiter method in brain heart infusion broth. The format is cell-based. The settings on record: MB5407. From the text:
(§1) The antibacterial activity of 9-deoxo-9(Z)-hydroxyiminoerythromycin A (II) against a panel of aerobic Gram positive and negative bacteria is shown in the following Table. The assay employs a liquid turbidimetric microtiter method for determination of the minimum inhibitory concentration (MIC) in brain heart infusion broth. […] The MIC is generally not an absolute value but rather a concentration range that falls within a two-fold dilution limit. Generally twelve two-fold dilutions of the test compound are employed with the initial concentration set at 128 mcg/ml.

Series [2] relates to Enterococcus faecium MB 5416. Described as above. The settings on record: MB5416. It is filed as cell-based.
From the text: as §1

In series [3] the test system is Klebsiella pneumoniae MB4005. The description is as above. It is filed as cell-based.
From the text: as §1

Series [4] relates to Staphylococcus aureus MB 2865. The description is as above. The format is cell-based. The settings on record: MB2865.
From the text: as §1

Series [5] relates to Staphylococcus epidermidis MB 5414. Described as above. It is filed as cell-based. The settings on record: MB5414.
From the text: as §1

The test system of series [6] is Staphylococcus haemolyticus MB 5412. The description is as above. It is filed as cell-based. The settings on record: MB5412.
From the text: as §1

The subject of series [7] is Steptococcus pneumoniae CL 2883. The series is described as above. It is filed as cell-based.
From the text: as §1

Series [8] deals with Streptococcus agalactiae CL 1343. Described as above. It is filed as cell-based. The settings on record: CL1343.
From the text: as §1

The subject of series [9] is Streptococcus pyogenes MB 2874. The description is as above. The settings on record: MB2874. It is filed as cell-based.
From the text: as §1

In series [10] the test system is Streptococcus pyogenes MB 5406. The series is described as above. It is filed as cell-based. The settings on record: MB5406.
From the text: as §1

In series [11] the test system is Streptococcus viridans CL 2943. The series is described as above. It is filed as cell-based. The settings on record: CL2943.
From the text: as §1

For series [12], the system named is Yersinia enterocoltica CL 1598. Described as above. The format is cell-based. The settings on record: CL1598.
From the text: as §1

Series [13] has as its system Escherichia coli MB 2884. The description is as above. The format is cell-based. The settings on record: MB2884. From the text:
(§2) The assay employs a liquid turbidimetric microtiter method for determination of the minimum inhibitory concentration (MIC) in brain heart infusion broth. […] The MIC is generally not an absolute value but rather a concentration range that falls within a two-fold dilution limit.

Series [14] relates to Escherichia coli MB 4926. The series is described as above. The settings on record: MB4926. It is filed as cell-based.
From the text: as §2

Series [15] relates to Pseudomonas stutzeri MB 1231. Described as above. The format is cell-based. The settings on record: Stutzerimonas stutzeri, MB1231.
From the text: as §2

In series [16] the test system is panel of aerobic Gram positive and negative bacteria. As to the kind of experiment: antibacterial activity in vitro against a panel of bacteria. It is filed as cell-based.
From the text: as §1

Series [17] is described as follows: isomer conversion under the MIC assay conditions. It is filed as physicochemical.
From the text: as §1

Series [18] relates to Gram-positive microorganisms, e.g. Staphylococcus aureaus and Streptococcus pyogenes, and certain Gram-negative microorganisms. Nature of the series: in vivo antibacterial activity, infected mice treated orally or subcutaneously. An excerpt: Extrapolation of such in vivo tests to support for human utility for macrolide compounds is likewise taught in U.S. Pat. No. 4,518,590, cited above.

[19] abbreviates: Enterococcus faecalis MB 5407, brain heart infusion broth, read-out: MIC.
[20] abbreviates: Enterococcus faecium MB 5416, brain heart infusion broth, read-out: MIC.
Setting [21] is: Klebsiella pneumoniae MB4005, brain heart infusion broth, read-out: MIC.
Where [22] appears, read: Staphylococcus aureus MB 2865, brain heart infusion broth, read-out: MIC.
[23] abbreviates: Staphylococcus epidermidis MB 5414, brain heart infusion broth, read-out: MIC.
[24] abbreviates: Staphylococcus haemolyticus MB 5412, brain heart infusion broth, read-out: MIC.
The mark [25] stands for this setting: Steptococcus pneumoniae CL 2883, brain heart infusion broth, read-out: MIC.
The mark [26] stands for this setting: Streptococcus agalactiae CL 1343, brain heart infusion broth, read-out: MIC.
Setting [27] is: Streptococcus pyogenes MB 2874, brain heart infusion broth, read-out: MIC.
[28] abbreviates: Streptococcus pyogenes MB 5406, brain heart infusion broth, read-out: MIC.
The mark [29] stands for this setting: Streptococcus viridans CL 2943, brain heart infusion broth, read-out: MIC.
[30] abbreviates: Yersinia enterocoltica CL 1598, brain heart infusion broth, read-out: MIC.

As for `CC[C@H]1OC(=O)[C@H](C)[C@@H](O[C@H]2C[C@@](C)(OC)[C@@H](O)[C@H](C)O2)[C@H](C)[C@@H](O[C@@H]2O[C@H](C)C[C@H](N(C)C)[C@H]2O)[C@](C)(O)C[C@@H](C)C(=O)[C@H](C)[C@@H](O)[C@]1(C)O` [(I), Erythromycin A], the MIC – broadly, the least concentration at which growth counts as inhibited – in series [1] (Enterococcus faecalis) was 1 µg/mL (≈ 1.36 µM); in [2] (Enterococcus faecium), 0.12 µg/mL (≈ 0.164 µM); in series [3] (Klebsiella pneumoniae, MB4005) it was 32 µg/mL (≈ 43.6 µM); in [4] (Staphylococcus aureus), 0.25 µg/mL (≈ 0.341 µM); in series [5] (Staphylococcus epidermidis), 0.12 µg/mL (≈ 0.164 µM); in series [6] (Staphylococcus haemolyticus), 0.12 µg/mL (≈ 0.164 µM). Also, the MIC is no more than 0.06 µg/mL in series [7]; no more than 0.06 µg/mL in series [8] (Streptococcus agalactiae); no more than 0.06 µg/mL in [9] (Streptococcus pyogenes); 16 µg/mL (≈ 21.8 µM) in [10] (Streptococcus pyogenes); no more than 0.06 µg/mL in series [11] (Streptococcus viridans); 32 µg/mL (≈ 43.6 µM) in [12] (Yersinia). In addition, the MIC was 16 µg/mL (≈ 21.8 µM) in [13], 0.25 µg/mL (≈ 0.341 µM) in series [14] and no more than 0.06 µg/mL in [15].
Turning to `CC[C@H]1OC(=O)[C@H](C)[C@@H](O[C@H]2C[C@@](C)(OC)[C@@H](O)[C@H](C)O2)[C@H](C)[C@@H](O[C@@H]2O[C@H](C)C[C@H](N(C)C)[C@H]2O)[C@](C)(O)C[C@@H](C)/C(=N/O)[C@H](C)[C@@H](O)[C@]1(C)O` [(II), 9-Deoxo-9(Z)-hydroxyiminoerythromycin A], the MIC is 2 µg/mL (≈ 2.67 µM) in [1] (setting [19]); 0.25 µg/mL (≈ 0.334 µM) in series [2] (setting [20]); 32 µg/mL (≈ 42.7 µM) in [3] (setting [21]); 0.25 µg/mL (≈ 0.334 µM) in [4] (setting [22]); 0.12 µg/mL (≈ 0.16 µM) in series [5] (setting [23]); 0.12 µg/mL (≈ 0.16 µM) in series [6] (setting [24]). For the same molecule, the minimum inhibitory concentration (MIC) in series [7] (setting [25]) was no more than 0.06 µg/mL; in [8] (setting [26]) it was no more than 0.06 µg/mL; in [9] (setting [27]), no more than 0.06 µg/mL; in series [10] (setting [28]), 32 µg/mL (≈ 42.7 µM); in [11] (setting [29]) it was no more than 0.06 µg/mL; in [12] (setting [30]) it was 32 µg/mL (≈ 42.7 µM). The minimum inhibitory concentration (MIC) in series [13] was 16 µg/mL (≈ 21.4 µM); in [14], 0.5 µg/mL (≈ 0.668 µM); in series [15], no more than 0.06 µg/mL. In series [16] (MIC panel, compared with (III) and erythromycin A (I)), the “activity in vitro (in words)” value is “comparable with the activities of the known compounds 9-deoxo-9(E)-hydroxyiminoerythromycin A (III) and erythromycin A (I)”. Moreover, the “in vitro activity against Gram-positive and certain Gram-negative microorganisms” value in [16] (e.g. Staphylococcus aureas, Streptococcus pyogenes, certain Gram-negative cocci) is “exhibits in vitro activity against a variety of Gram-positive microorganisms, e.g. Staphylococcus aureas and Streptococcus pyogenes, and against certain Gram-negative microorganisms”. Also, in series [17], the “conversion of (Z)isomer to (E)isomer” value is “An undetermined fraction of the (Z)isomer is converting”. The “in vivo activity compared with in vitro activity” value in [18] (as regards susceptible organisms) is recorded as “more limited than its in vitro activity”. Further, the in vivo activity result in [18] (oral and parenteral routes) is “active in vivo versus a variety of Gram-positive microorganisms, e.g. Staphylococcus aureaus and Streptococcus pyogenes, and also certain Gram-negative microorganisms”.
As for `CC[C@H]1OC(=O)[C@H](C)[C@@H](O[C@H]2C[C@@](C)(OC)[C@@H](O)[C@H](C)O2)[C@H](C)[C@@H](O[C@@H]2O[C@H](C)C[C@H](N(C)C)[C@H]2O)[C@](C)(O)C[C@@H](C)/C(=N\O)[C@H](C)[C@@H](O)[C@]1(C)O` [(III), 9-Deoxo-9(E)-hydroxyiminoerythromycin A], the MIC in [1] (setting [19]) was determined as 0.5 µg/mL (≈ 0.668 µM); in [2] (setting [20]), 0.12 µg/mL (≈ 0.16 µM); in series [3] (setting [21]), 32 µg/mL (≈ 42.7 µM); in series [4] (setting [22]) it was 0.25 µg/mL (≈ 0.334 µM); in [5] (setting [23]), 0.12 µg/mL (≈ 0.16 µM); in series [6] (setting [24]), 0.12 µg/mL (≈ 0.16 µM). Further, the MIC in [7] (setting [25]) was 0.12 µg/mL (≈ 0.16 µM); in [8] (setting [26]), no more than 0.06 µg/mL; in [9] (setting [27]), no more than 0.06 µg/mL; in [10] (setting [28]), 16 µg/mL (≈ 21.4 µM); in series [11] (setting [29]), no more than 0.06 µg/mL; in series [12] (setting [30]) it was 16 µg/mL (≈ 21.4 µM). Besides, the results for the minimal inhibitory concentration (MIC) in series [13], in [14] and in series [15] were 32 µg/mL (≈ 42.7 µM), 0.25 µg/mL (≈ 0.334 µM) and 1 µg/mL (≈ 1.34 µM), respectively.
